# Laboratory results from patent publication US20150105252A1, “SUBSTITUTED PYRAZOLES AS HERBICIDES” (E I DU PONT DE NEMOURS AND COMPANY, priority 2013, published 2015).
# What was measured:
# [1] = tested on: radish, wild; assay: Test D preemergence; type: in vivo, Raphanus raphanistrum; conditions: scale 0 to 100
# Procedure, shortened: (§1)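 Preemergence: seeds sown in silt loam and sprayed with compounds in a non-phytotoxic solvent with surfactant; postemergence: plants at 2 to 18 cm (1- to 4-leaf stage) in peat-based medium treated likewise. After 14 to 21 days in controlled growth conditions, injury rated visually versus controls on 0 (no effect) to 100 (complete control) scale.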
# [2] = tested on: common ragweed; assay: Test F preemergence; type: in vivo, Ambrosia elation
# Procedure, shortened: (§2)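 Test chemicals in a non-phytotoxic solvent with surfactant were applied preemergence to seeds sown in silt loam, or postemergence to plants 2–18 cm tall (1- to 4-leaf stage). Plants were kept in a greenhouse for 14–21 days and then rated visually against controls on a 0 (no effect) to 100 (complete control) scale.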
# [3] = tested on: field violet; assay: Test D postemergence; type: in vivo, Viola arvensis; conditions: scale 0 to 100
# Procedure, shortened: as §1
# [4] = tested on: yellow nutsedge; assay: Test F preemergence; type: in vivo, Cyperus esculentus
# Procedure, shortened: as §2
# [5] = tested on: velvetleaf; assay: Test F preemergence; type: in vivo, Abutilon theophrasti
# Procedure, shortened: as §2
# [6] = tested on: barley, winter; assay: Test D preemergence; type: in vivo, Hordeum vulgare; conditions: scale 0 to 100
# Procedure, shortened: as §1
# [7] = tested on: barley, spring; assay: Test D preemergence; type: in vivo, Hordeum vulgare; conditions: scale 0 to 100
# Procedure, shortened: as §1
# [8] = tested on: crabgrass, Brazil; assay: Test F preemergence; type: in vivo, Digitaria horizontalis
# Procedure, shortened: as §2
# [9] = tested on: pigweed; assay: Test D preemergence; type: in vivo, Amaranthus retroflexus; conditions: scale 0 to 100
# Procedure, shortened: as §1
# [10] = tested on: canarygrass; assay: Test D preemergence; type: in vivo, Phalaris minor; conditions: scale 0 to 100
# Procedure, shortened: as §1
# [11] = tested on: wheat, winter; assay: Test D preemergence; type: in vivo, Triticum aestivum; conditions: scale 0 to 100
# Procedure, shortened: as §1
# [12] = tested on: wheat, spring; assay: Test D preemergence; type: in vivo, Triticum aestivum; conditions: scale 0 to 100
# Procedure, shortened: as §1
# [13] = tested on: field poppy; assay: Test D preemergence; type: in vivo, Papaver rhoeas; conditions: scale 0 to 100
# Procedure, shortened: as §1
# [14] = tested on: lambsquarters; assay: Test D postemergence; type: in vivo, Chenopodium album; conditions: scale 0 to 100
# Procedure, shortened: as §1
# [15] = Preemergence, 31 g ai/ha, scale 0 to 100
# [16] = Preemergence, 62 g ai/ha, scale 0 to 100
# [17] = Preemergence, 125 g ai/ha, scale 0 to 100
# [18] = preemergence, 8 g ai/ha, scale 0 to 100, 100 is complete control
# [19] = preemergence, 16 g ai/ha, scale 0 to 100, 100 is complete control
smiles,measurement,setting,value
"CCc1cc(C(=O)NCC(F)(F)F)nn1Cc1ccnc(C(F)(F)F)c1 [Compound 78, 5-ethyl-N-(2,2,2-trifluoroethyl)-1-[[(2-trifluoromethyl)-4-pyridinyl]methyl]-1H-pyrazole-3-carboxamide]","Plant response rating, Radish, Wild",[1]; 31 g ai/ha,100
same,"Plant response rating, Radish, Wild",[1]; 62 g ai/ha,100
same,"Plant response rating, Radish, Wild",[1]; 125 g ai/ha,100
same,"Plant response rating, Radish, Wild",[1]; 250 g ai/ha,100
same,"Plant response rating, Common Ragweed",[2]; [15],90
same,"Plant response rating, Common Ragweed",[2]; [16],98
same,"Plant response rating, Common Ragweed",[2]; [17],100
same,"Plant response rating, Common Ragweed",[2]; [18],0
same,"Plant response rating, Common Ragweed",[2]; [19],30
same,Field Violet plant response rating,"[3]; Postemergence, 31 g ai/ha",30
same,Field Violet plant response rating,"[3]; Postemergence, 125 g ai/ha",60
same,Field Violet plant response rating,"[3]; Postemergence, 250 g ai/ha",65
same,Field Violet plant response rating,"[3]; postemergence, 62 g ai/ha",40
same,"Plant response rating, Yellow Nutsedge",[4]; [15],20
same,"Plant response rating, Yellow Nutsedge",[4]; [16],70
same,"Plant response rating, Yellow Nutsedge",[4]; [17],90
same,"Plant response rating, Yellow Nutsedge",[4]; [18],0
same,"Plant response rating, Yellow Nutsedge",[4]; [19],0
same,"Plant response rating, Velvetleaf",[5]; [15],10
same,"Plant response rating, Velvetleaf",[5]; [16],75
same,"Plant response rating, Velvetleaf",[5]; [17],95
same,"Plant response rating, Velvetleaf",[5]; [18],5
same,"Plant response rating, Barley, Winter",[6]; 31 g ai/ha,25
same,"Plant response rating, Barley, Winter",[6]; 62 g ai/ha,50
same,"Plant response rating, Barley, Winter",[6]; 125 g ai/ha,65
same,"Plant response rating, Barley, Winter",[6]; 250 g ai/ha,95
same,"Plant response rating, Barley, Spring",[7]; 31 g ai/ha,20
same,"Plant response rating, Barley, Spring",[7]; 62 g ai/ha,65
same,"Plant response rating, Barley, Spring",[7]; 125 g ai/ha,90
same,"Plant response rating, Barley, Spring",[7]; 250 g ai/ha,100
same,"Plant response rating, Crabgrass, Brazil",[8]; [15],100
same,"Plant response rating, Crabgrass, Brazil",[8]; [16],100
same,"Plant response rating, Crabgrass, Brazil",[8]; [17],100
same,"Plant response rating, Crabgrass, Brazil",[8]; [18],30
same,"Plant response rating, Crabgrass, Brazil",[8]; [19],70
same,"Plant response rating, Pigweed",[9]; 31 g ai/ha,100
same,"Plant response rating, Pigweed",[9]; 62 g ai/ha,100
same,"Plant response rating, Pigweed",[9]; 125 g ai/ha,100
same,"Plant response rating, Pigweed",[9]; 250 g ai/ha,100
same,"Plant response rating, Canarygrass",[10]; 31 g ai/ha,15
same,"Plant response rating, Canarygrass",[10]; 62 g ai/ha,30
same,"Plant response rating, Canarygrass",[10]; 125 g ai/ha,90
same,"Plant response rating, Canarygrass",[10]; 250 g ai/ha,100
same,"Plant response rating, Wheat, Winter",[11]; 31 g ai/ha,15
same,"Plant response rating, Wheat, Winter",[11]; 62 g ai/ha,50
same,"Plant response rating, Wheat, Winter",[11]; 125 g ai/ha,80
same,"Plant response rating, Wheat, Winter",[11]; 250 g ai/ha,95
same,"Plant response rating, Wheat, Spring",[12]; 31 g ai/ha,5
same,"Plant response rating, Wheat, Spring",[12]; 62 g ai/ha,55
same,"Plant response rating, Wheat, Spring",[12]; 125 g ai/ha,80
same,"Plant response rating, Wheat, Spring",[12]; 250 g ai/ha,100
same,"Plant response rating, Field Poppy",[13]; 31 g ai/ha,100
same,"Plant response rating, Field Poppy",[13]; 62 g ai/ha,100
same,"Plant response rating, Field Poppy",[13]; 125 g ai/ha,100
same,"Plant response rating, Field Poppy",[13]; 250 g ai/ha,100
same,Lambsquarters plant response rating,"[14]; Postemergence, 31 g ai/ha",20
same,Lambsquarters plant response rating,"[14]; Postemergence, 125 g ai/ha",80
same,Lambsquarters plant response rating,"[14]; Postemergence, 250 g ai/ha",80
same,Lambsquarters plant response rating,"[14]; postemergence, 62 g ai/ha",60
CCCc1cc(C(=O)NCC(F)(F)F)nn1Cc1ccnc(C(F)(F)F)c1 [Compound 105],"Plant response rating, Radish, Wild",[1]; 31 g ai/ha,35
same,"Plant response rating, Radish, Wild",[1]; 62 g ai/ha,100
same,"Plant response rating, Radish, Wild",[1]; 125 g ai/ha,100
same,"Plant response rating, Radish, Wild",[1]; 250 g ai/ha,100
same,"Plant response rating, Common Ragweed",[2]; [16],35
same,"Plant response rating, Common Ragweed",[2]; [17],100
same,"Plant response rating, Common Ragweed",[2]; [18],0
same,"Plant response rating, Common Ragweed",[2]; [19],0
same,Field Violet plant response rating,"[3]; Postemergence, 31 g ai/ha",40
same,Field Violet plant response rating,"[3]; Postemergence, 125 g ai/ha",90
same,Field Violet plant response rating,"[3]; Postemergence, 250 g ai/ha",100
same,Field Violet plant response rating,"[3]; postemergence, 62 g ai/ha",75
same,"Plant response rating, Yellow Nutsedge",[4]; [15],25
same,"Plant response rating, Yellow Nutsedge",[4]; [16],25
same,"Plant response rating, Yellow Nutsedge",[4]; [17],65
same,"Plant response rating, Yellow Nutsedge",[4]; [18],0
same,"Plant response rating, Yellow Nutsedge",[4]; [19],0
same,"Plant response rating, Velvetleaf",[5]; [15],0
same,"Plant response rating, Velvetleaf",[5]; [16],20
same,"Plant response rating, Velvetleaf",[5]; [17],40
same,"Plant response rating, Velvetleaf",[5]; [18],0
same,"Plant response rating, Velvetleaf",[5]; [19],0
same,"Plant response rating, Barley, Winter",[6]; 31 g ai/ha,5
same,"Plant response rating, Barley, Winter",[6]; 62 g ai/ha,40
same,"Plant response rating, Barley, Winter",[6]; 125 g ai/ha,70
same,"Plant response rating, Barley, Winter",[6]; 250 g ai/ha,95
same,"Plant response rating, Barley, Spring",[7]; 31 g ai/ha,15
same,"Plant response rating, Barley, Spring",[7]; 62 g ai/ha,40
same,"Plant response rating, Barley, Spring",[7]; 125 g ai/ha,65
same,"Plant response rating, Barley, Spring",[7]; 250 g ai/ha,85
same,"Plant response rating, Crabgrass, Brazil",[8]; [15],98
same,"Plant response rating, Crabgrass, Brazil",[8]; [16],100
same,"Plant response rating, Crabgrass, Brazil",[8]; [17],100
same,"Plant response rating, Crabgrass, Brazil",[8]; [18],5
same,"Plant response rating, Crabgrass, Brazil",[8]; [19],40
same,"Plant response rating, Pigweed",[9]; 31 g ai/ha,100
same,"Plant response rating, Pigweed",[9]; 62 g ai/ha,100
same,"Plant response rating, Pigweed",[9]; 125 g ai/ha,100
same,"Plant response rating, Pigweed",[9]; 250 g ai/ha,100
same,"Plant response rating, Canarygrass",[10]; 31 g ai/ha,15
same,"Plant response rating, Canarygrass",[10]; 62 g ai/ha,60
same,"Plant response rating, Canarygrass",[10]; 125 g ai/ha,100
same,"Plant response rating, Canarygrass",[10]; 250 g ai/ha,100
same,"Plant response rating, Wheat, Winter",[11]; 31 g ai/ha,15
same,"Plant response rating, Wheat, Winter",[11]; 62 g ai/ha,35
same,"Plant response rating, Wheat, Winter",[11]; 125 g ai/ha,75
same,"Plant response rating, Wheat, Winter",[11]; 250 g ai/ha,90
same,"Plant response rating, Wheat, Spring",[12]; 31 g ai/ha,10
same,"Plant response rating, Wheat, Spring",[12]; 62 g ai/ha,40
same,"Plant response rating, Wheat, Spring",[12]; 125 g ai/ha,75
same,"Plant response rating, Wheat, Spring",[12]; 250 g ai/ha,100
same,"Plant response rating, Field Poppy",[13]; 31 g ai/ha,100
same,"Plant response rating, Field Poppy",[13]; 62 g ai/ha,100
same,"Plant response rating, Field Poppy",[13]; 125 g ai/ha,100
same,"Plant response rating, Field Poppy",[13]; 250 g ai/ha,100
same,Lambsquarters plant response rating,"[14]; Postemergence, 31 g ai/ha",40
same,Lambsquarters plant response rating,"[14]; Postemergence, 125 g ai/ha",70
same,Lambsquarters plant response rating,"[14]; Postemergence, 250 g ai/ha",80
same,Lambsquarters plant response rating,"[14]; postemergence, 62 g ai/ha",65
